# Like-named read-outs stand apart in the source and are kept apart here.
# Tests used:
# IMP-1 = IMP-1 (Serratia marcescens, UniProt P52699); assay: biochemical; format: biochemical; conditions: fluorescence assay, CCF2-FA substrate, 2 pM enzyme, 2 hours at 25° C.; read-out: IMP-1 IC50
# Summary of the method: (§1)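 Test compound, enzyme and the FRET cephalosporin substrate CCF2-FA are incubated together for 2 hours at 25° C. Cleavage is followed by fluorescence, and IC50 values are derived from semi-logarithmic inhibition curves fitted with a 4-parameter model.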
# NDM-1 = NDM-1 (Klebsiella pneumoniae, UniProt C7C422); assay: biochemical; format: biochemical; conditions: fluorescence assay, CCF2-FA substrate, 1 pM enzyme, 2 hours at 25° C.; read-out: NDM-1 IC50
# Chain of NDM-1 (C7C422 whole entry, looked up, species assumed): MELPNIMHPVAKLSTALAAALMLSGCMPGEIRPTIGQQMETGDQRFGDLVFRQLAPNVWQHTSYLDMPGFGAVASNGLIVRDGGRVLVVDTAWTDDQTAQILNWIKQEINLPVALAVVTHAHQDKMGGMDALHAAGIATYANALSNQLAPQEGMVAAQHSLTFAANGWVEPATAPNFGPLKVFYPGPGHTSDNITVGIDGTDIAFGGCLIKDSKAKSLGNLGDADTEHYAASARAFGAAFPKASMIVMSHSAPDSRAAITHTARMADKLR
# Summary of the method: as §1
# VIM-1 = VIM-1 (Pseudomonas aeruginosa (strain ATCC 15692 / DSM 22644 / CIP 104116 / JCM 14847 / LMG 12228 / 1C / PRS 101 / PAO1), UniProt A0A0F7KYQ8); assay: biochemical; conditions: CCF2-FA substrate, 30 pM enzyme, 2 hours at 25° C.
# Summary of the method: as §1
# [1] = system: Escherichia coli expressing NDM-1 (CLB30005, CLB30016); format: cell-based; conditions: NDM-1 strain, with imipenem 1 μg/ml, 95% inhibition of growth
# Summary of the method: (§2)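 Imipenem 1 μg/ml + inhibitor; MBL-expressing clinical strains in 1.1×CAMHB, inoculum from saline suspension diluted 1:100; 35° C, 22–24 h; absorbance read-out.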
# [2] = system: Klebsiella pneumoniae expressing VIM-1 (IHMA599644); format: cell-based; conditions: VIM-1 strain IHMA599644, with imipenem 1 μg/ml, 95% inhibition of growth
# Summary of the method: as §2
# [3] = system: Serratia marcescens expressing IMP-1 (CL5741); format: cell-based; conditions: IMP-1 strain CL5741, with imipenem 1 μg/ml, 95% inhibition of growth
# Summary of the method: as §2
# [4] = system: Pseudomonas aeruginosa efflux+ (MB9798), IMP-1; format: cell-based; conditions: concentration restoring susceptibility to imipenem at 2 μg/mL in the presence of a class A, C, D serine β-lactamase inhibitor closely related to relebactam
# Summary of the method: (§3)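 Steps: add fixed imipenem and/or ceftazidime (usually CLSI breakpoint) and fixed AmpC-directed class A/C inhibitor to microbroth MIC wells; titrate MBL inhibitor; record concentration regaining susceptibility for each PAO1-derived strain; divide efflux+ by efflux− value.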
# [5] = system: Pseudomonas aeruginosa efflux− (MB9799), IMP-1; format: cell-based; conditions: concentration restoring susceptibility to imipenem at 2 μg/mL in the presence of a class A, C, D serine β-lactamase inhibitor closely related to relebactam
# Summary of the method: as §3
# [6] = system: Pseudomonas aeruginosa MB9798 vs MB9799; conditions: ratio MITC95 PA_9798/MITC95 PA_9799
# Summary of the method: as §3
# [7] = fluorescence assay, read-out: VIM-1 IC50
# Chain of IMP-1 (P52699 whole entry, looked up, species assumed): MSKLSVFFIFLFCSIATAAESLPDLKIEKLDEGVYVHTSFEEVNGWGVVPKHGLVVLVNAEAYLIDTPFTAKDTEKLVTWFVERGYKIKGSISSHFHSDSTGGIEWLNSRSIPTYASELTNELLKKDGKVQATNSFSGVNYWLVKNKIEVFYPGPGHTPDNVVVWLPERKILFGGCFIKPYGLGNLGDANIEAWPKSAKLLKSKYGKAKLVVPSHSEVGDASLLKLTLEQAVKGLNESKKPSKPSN
SMILES,IC50 (IMP-1) [nM],IC50 (NDM-1) [nM],"IC50 (VIM-1; VIM-1 IC50, fluorescence assay) [nM]",Escherichia coli MITC95 [1] [µM],Klebsiella pneumoniae MITC95 [2] [µM],Serratia marcescens MITC95 [3] [µM],"P. aeruginosa expressing IMP-1, efflux + (MB9798) MITC95 [4] [µM]","P. aeruginosa expressing IMP-1, efflux − (MB9799) MITC95 [5] [µM]",Efflux ratio [6],IC50 (VIM-1; [7]) [nM]
"Nc1nc2c(-c3ccc(S(=O)(=O)NC[C@H]4CCNC4)c(S(N)(=O)=O)c3-c3nn[nH]n3)cccc2[nH]1 [Example 259, (S)-4-(2-amino-1H-benzo[d]imidazol-4-yl)-N1-(pyrrolidin-3-ylmethyl)-3-(2H-tetrazol-5-yl)benzene-1,2-disulfonamide]",0.836,0.0555,0.229,0.3906,1.563,0.7813,0.7813,0.7813,1.00,
"Nc1nc2c(-c3ccc(S(=O)(=O)NC4CCNCC4)c(S(N)(=O)=O)c3-c3nn[nH]n3)cccc2[nH]1 [Example 260, 4-(2-amino-1H-benzo[d]imidazol-4-yl)-N1-(piperidin-4-yl)-3-(1H-tetrazol-5-yl)benzene-1,2-disulfonamide]",0.648,0.0431,,0.7813,1.563,1.563,0.7813,0.7813,1.00,0.151
"Nc1nc2c(-c3ccc(S(=O)(=O)NC[C@H]4CCCN4)c(S(N)(=O)=O)c3-c3nn[nH]n3)cccc2[nH]1 [Example 261, (R)-4-(2-amino-1H-benzo[d]imidazol-4-yl)-N1-(pyrrolidin-2-ylmethyl)-3-(2H-tetrazol-5-yl)benzene-1,2-disulfonamide]",0.648,0.0691,0.224,0.1953,0.7813,0.7813,0.7813,0.7813,1.00,
"Nc1nc2c(-c3ccc(S(=O)(=O)NC[C@@H]4CCCN4)c(S(N)(=O)=O)c3-c3nn[nH]n3)cccc2[nH]1 [Example 262, (S)-4-(2-amino-1H-benzo[d]imidazol-4-yl)-N1-(pyrrolidin-2-ylmethyl)-3-(2H-tetrazol-5-yl)benzene-1,2-disulfonamide]",0.925,0.0768,0.295,0.1953,0.7813,0.7813,0.7813,0.7813,1.00,
"Nc1nc2c(-c3ccc(S(=O)(=O)NC[C@@H]4CCNC4)c(S(N)(=O)=O)c3-c3nn[nH]n3)cccc2[nH]1 [Example 263, (R)-4-(2-amino-1H-benzo[d]imidazol-4-yl)-N1-(pyrrolidin-3-ylmethyl)-3-(2H-tetrazol-5-yl)benzene-1,2-disulfonamide]",0.864,0.0461,0.205,0.3906,1.563,0.7813,0.7813,0.7813,1.00,
"CC[C@@H](CN)NS(=O)(=O)c1ccc(-c2cccc3[nH]c(N)nc23)c(-c2nn[nH]n2)c1S(N)(=O)=O [Example 264, (S)-4-(2-amino-1H-benzo[d]imidazol-4-yl)-N1-(1-aminobutan-2-yl)-3-(2H-tetrazol-5-yl)benzene-1,2-disulfonamide]",5.93,0.2,,0.7813,1.563,1.563,3.125,0.7813,4.00,0.47
"CC[C@H](CN)NS(=O)(=O)c1ccc(-c2cccc3[nH]c(N)nc23)c(-c2nn[nH]n2)c1S(N)(=O)=O [Example 265, (R)-4-(2-amino-1H-benzo[d]imidazol-4-yl)-N1-(1-aminobutan-2-yl)-3-(2H-tetrazol-5-yl)benzene-1,2-disulfonamide]",0.292,0.0241,,1.563,1.563,0.7813,0.7813,0.7813,1.00,0.0927
"C[C@H](CCN)NS(=O)(=O)c1ccc(-c2cccc3[nH]c(N)nc23)c(-c2nn[nH]n2)c1S(N)(=O)=O [Example 266, (R)-4-(2-amino-1H-benzo[d]imidazol-4-yl)-N1-(4-aminobutan-2-yl)-3-(2H-tetrazol-5-yl)benzene-1,2-disulfonamide]",0.477,0.0282,,0.7813,0.7813,0.7813,0.3906,0.7813,0.50,0.115
"C[C@@H](CCN)NS(=O)(=O)c1ccc(-c2cccc3[nH]c(N)nc23)c(-c2nn[nH]n2)c1S(N)(=O)=O [Example 267, (S)-4-(2-amino-1H-benzo[d]imidazol-4-yl)-N1-(4-aminobutan-2-yl)-3-(2H-tetrazol-5-yl)benzene-1,2-disulfonamide]",1.63,0.179,,0.7813,1.563,1.563,0.7813,0.7813,1.00,0.279
"NCCN1CC[C@H](NS(=O)(=O)c2ccc(-c3cccc4[nH]c(N)nc34)c(-c3nn[nH]n3)c2S(N)(=O)=O)C1 [Example 268, (S)-4-(2-amino-1H-benzo[d]imidazol-4-yl)-N1-(1-(2-aminoethyl)pyrrolidin-3-yl)-3-(2H-tetrazol-5-yl)benzene-1,2-disulfonamide]",1.1,0.0612,0.15,0.7813,1.563,1.563,0.7813,0.7813,1.00,
"NCC(=O)NC1CCC[C@@H](c2ccc(S(=O)(=O)N[C@@H]3CCNC3)c(S(N)(=O)=O)c2-c2nn[nH]n2)C1 (stereo partly drawn) [Example 270, 2-Amino-N-((3R)-3-(4-(N—((R)-pyrrolidin-3-yl)sulfamoyl)-3-sulfamoyl-2-(2H-tetrazol-5-yl)phenyl)cyclohexyl)acetamide]",2.32,0.244,,1.563,3.125,3.125,1.563,1.563,1.00,0.202
"NC(=O)c1nc2c(-c3ccc(S(=O)(=O)N[C@@H]4CCNC4)c(S(N)(=O)=O)c3-c3nn[nH]n3)cccc2[nH]1 [Example 271, (R)-4-(4-(N-(pyrrolidin-3-yl)sulfamoyl)-3-sulfamoyl-2-(2H-tetrazol-5-yl)phenyl)-1H-benzo[d]imidazole-2-carboxamide]",0.271,0.0196,,1.563,3.125,0.7813,0.7813,1.563,0.50,0.0989
